In patent US6525059B1, “Substituted pyrazoles as p38 kinase inhibitors” (G. D. Searle & Company, priority 1998, dated 2003):

Columns and labels:
TNF-α = test: LPS stimulation of TNF production by U937 cells; type: cell-based, human; conditions: for inhibition at 1 µM / IC50: Homo sapiens; for inhibition at 1 µM: U-937, @ 1.0 uM, read-out: U937 Cell % inhib @ conc.; for IC50: U-937, TNF production, LPS-stimulated human U937 cells, read-out: U937 Cell IC50
Experimental: Fifty million cells in 100 ml media were induced to terminal monocytic differentiation by 24 hour incubation with 20 ng/ml phorbol 12-myristate 13-acetate (Sigma). The cells were washed by centrifugation (200×g for 5 min) and resuspended in 100 ml fresh medium. After 24-48 hours, the cells were harvested, centrifuged, and resuspended in culture medium at 2 million cells/ml.
Compounds were prepared as 10 mM stock solutions in DMSO and diluted in culture medium to yield a final DMSO concentration of 0.1% in the cell assay. LPS (E coli, 100 ng/ml final concentration) was then added at a volume of 0.02 ml. After 4 hour incubation at 37° C., the amount of TNF-α released in the culture medium was quantitated by ELISA. Inhibitory potency is expressed as IC50 (μM).
In vitro whole cell assay for measuring the ability of the compounds to inhibit TNF production in human U937 cells stimulated with LPS are shown in the column identified as: […]

human p38 kinase alpha = target: T1, human p38 kinase alpha (Homo sapiens, UniProt Q16539); test: p38 kinase in vitro assay, phosphorylation of biotinylated PHAS-I with gamma 32P-ATP; type: biochemical; conditions: for inhibition at 1 µM / inhibition at 10 µM: read-out: P38 alpha kinase % inhib @ conc.; for IC50: read-out: P38 alpha kinase IC50
T1 construct: The coding region of the human p38a cDNA was obtained by PCR-amplification from RNA isolated from the human monocyte cell line THP.1; GST (N); made in house; host or cells: E. coli DH10B
T1 sequence (Q16539 whole entry): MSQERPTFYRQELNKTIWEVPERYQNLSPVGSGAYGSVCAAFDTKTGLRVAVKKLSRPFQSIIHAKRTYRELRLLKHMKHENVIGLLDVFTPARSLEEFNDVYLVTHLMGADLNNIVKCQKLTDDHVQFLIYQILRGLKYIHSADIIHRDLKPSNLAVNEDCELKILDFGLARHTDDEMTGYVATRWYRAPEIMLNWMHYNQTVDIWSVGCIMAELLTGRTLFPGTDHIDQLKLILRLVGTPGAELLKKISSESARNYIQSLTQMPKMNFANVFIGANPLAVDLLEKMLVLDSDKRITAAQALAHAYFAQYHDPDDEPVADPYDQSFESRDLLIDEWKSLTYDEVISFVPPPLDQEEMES
Procedure, shortened: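 Radiometric filter-capture read-out: streptavidin plates trap biotin-PHAS-I labelled by activated (MKK6) human p38α from γ-32P-ATP. Buffer 25 mM HEPES pH 7.5, 10 mM magnesium acetate, 50 μM cold ATP; reactions 1 h or overnight at 30 °C; inhibitors 10-fold dilutions 100 to 0.001 μM, triplicates, 1% DMSO.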

Row | Compound | inhibition at 1 µM (human p38 kinase alpha) | IC50 (human p38 kinase alpha) | inhibition at 10 µM (human p38 kinase alpha; @ 10.0 uM) | inhibition at 1 µM (TNF-α) | other results
1 | O=S(=O)(NCc1[nH]nc(-c2ccc(F)cc2)c1-c1ccncc1)c1ccc2ccccc2c1 [Example B-0110] | 66% | – | – | 13% | –
2 | O=S(=O)(NCc1[nH]nc(-c2ccc(F)cc2)c1-c1ccncc1)c1cccc2ccccc12 [Example B-0111] | 57% | – | – | – | IC50 (TNF-α): > 1 µM
3 | O=[N+]([O-])c1cccc(S(=O)(=O)NCc2[nH]nc(-c3ccc(F)cc3)c2-c2ccncc2)c1 [Example B-0114] | 45% | – | – | – | IC50 (TNF-α): 3.92 µM
4 | Cc1ccc(S(=O)(=O)NCc2[nH]nc(-c3ccc(F)cc3)c2-c2ccncc2)cc1 [Example B-0118] | – | 1.18 µM | – | – | IC50 (TNF-α): 1.29 µM
5 | O=S(=O)(/C=C\c1ccccc1)NCc1[nH]nc(-c2ccc(F)cc2)c1-c1ccncc1 [Example B-0119] | – | – | 89% | – | IC50 (TNF-α): 2.78 µM
6 | CN(C)c1cccc2c(S(=O)(=O)NCc3[nH]nc(-c4ccc(F)cc4)c3-c3ccncc3)cccc12 [Example B-0122] | – | – | 79% | 2% | –
7 | CC(C)c1ccc(S(=O)(=O)NCc2[nH]nc(-c3ccc(F)cc3)c2-c2ccncc2)cc1 [Example B-0123] | 59% | – | – | – | IC50 (TNF-α): > 1 µM
8 | Cc1c(Cl)cccc1S(=O)(=O)NCc1[nH]nc(-c2ccc(F)cc2)c1-c1ccncc1 [Example B-0124] | 73% | – | – | 15% | –
9 | CCCCOc1ccc(S(=O)(=O)NCc2[nH]nc(-c3ccc(F)cc3)c2-c2ccncc2)cc1 [Example B-0129] | 51% | – | – | 31% | –
10 | CCc1ccc(S(=O)(=O)NCc2[nH]nc(-c3ccc(F)cc3)c2-c2ccncc2)cc1 [Example B-0132] | 76% | – | – | 8% | –
11 | O=S(=O)(NCc1[nH]nc(-c2ccc(F)cc2)c1-c1ccncc1)c1ccc(F)cc1F [Example B-0134] | 60% | – | – | – | IC50 (TNF-α): 2.17 µM
12 | COc1ccc(S(=O)(=O)NCc2[nH]nc(-c3ccc(F)cc3)c2-c2ccncc2)c([N+](=O)[O-])c1 [Example B-0141] | 78% | – | – | 10% | –
13 | CCCCCCCCS(=O)(=O)NCc1[nH]nc(-c2ccc(F)cc2)c1-c1ccncc1 [Example B-0142] | 86% | – | – | 12% | –
14 | CSc1cccc(NC(=O)NCc2[nH]nc(-c3ccc(F)cc3)c2-c2ccncc2)c1 [Example B-0145] | – | – | 54% | 12% | –
15 | O=C(NCc1[nH]nc(-c2ccc(F)cc2)c1-c1ccncc1)NC(=O)c1ccccc1 [Example B-0146] | – | – | 77% | 28% | –
16 | CC(C)NC(=O)NCc1[nH]nc(-c2ccc(F)cc2)c1-c1ccncc1 [Example B-0149] | – | 1.15 µM | – | – | IC50 (TNF-α): 10 µM
17 | O=C(NCc1[nH]nc(-c2ccc(F)cc2)c1-c1ccncc1)N[C@@H]1C[C@@H]1c1ccccc1 [Example B-0153] | 57% | – | – | 21% | –
18 | CCOC(=O)c1cccc(NC(=O)NCc2[nH]nc(-c3ccc(F)cc3)c2-c2ccncc2)c1 [Example B-0154] | – | – | 65% | 14% | –
19 | CCCCCc1ccc(NC(=O)NCc2[nH]nc(-c3ccc(F)cc3)c2-c2ccncc2)cc1 [Example B-0156] | – | – | – | – | U937 Cell % inhib @ conc. (TNF-α; @ 1.0 uM): 13.0% @ 1.0 uM; P38 alpha kinase % inhib @ conc. (human p38 kinase alpha; @ 10.0 uM): 42.0% @ 10.0 uM
20 | O=C(NCCc1ccccc1)NCc1[nH]nc(-c2ccc(F)cc2)c1-c1ccncc1 [Example B-0157] | – | – | 48% | 9% | –
21 | CCOC(=O)c1ccc(NC(=O)NCc2[nH]nc(-c3ccc(F)cc3)c2-c2ccncc2)cc1 [Example B-0161] | – | – | 72% | 13% | –
22 | O=C(NCc1[nH]nc(-c2ccc(F)cc2)c1-c1ccncc1)Nc1ccc(C(F)(F)F)cc1 [Example B-0163] | – | – | 20% | 10% | –
23 | O=C(NCc1[nH]nc(-c2ccc(F)cc2)c1-c1ccncc1)Nc1cc(Cl)cc(Cl)c1 [Example B-0164] | – | – | 37% | 20% | –
24 | Cc1cccc(C)c1NC(=O)NCc1[nH]nc(-c2ccc(F)cc2)c1-c1ccncc1 [Example B-0168] | 44% | – | – | – | IC50 (TNF-α): 2.36 µM
25 | CCc1ccccc1NC(=O)NCc1[nH]nc(-c2ccc(F)cc2)c1-c1ccncc1 [Example B-0169] | 43% | – | – | 21% | –
26 | O=C(Cc1cccc2ccccc12)NCc1[nH]nc(-c2ccc(F)cc2)c1-c1ccncc1 [Example B-0171] | – | – | 61% | 21% | –
27 | O=C(NCc1[nH]nc(-c2ccc(F)cc2)c1-c1ccncc1)Nc1ccc(OC(F)(F)F)cc1 [Example B-0172] | – | – | 16% | 11% | –
28 | O=C(NCc1[nH]nc(-c2ccc(F)cc2)c1-c1ccncc1)Nc1ccccc1 [Example B-0175] | – | – | 41% | 31% | –

Second part, led by results:

Row | inhibition at 1 µM (human p38 kinase alpha) | IC50 (human p38 kinase alpha) | inhibition at 10 µM (human p38 kinase alpha; @ 10.0 uM) | Compound | inhibition at 1 µM (TNF-α) | other results
29 | 5% | – | – | O=C(NCc1[nH]nc(-c2ccc(F)cc2)c1-c1ccncc1)Nc1ccccc1-c1ccccc1 [Example B-0181] | 2% | –
30 | – | – | 65% | O=C(NCc1[nH]nc(-c2ccc(F)cc2)c1-c1ccncc1)Nc1ccccc1OC(F)(F)F [Example B-0185] | 25% | –
31 | 40% | – | – | Cc1cc(C)c(NC(=O)NCc2[nH]nc(-c3ccc(F)cc3)c2-c2ccncc2)c(C)c1 [Example B-0186] | 25% | –
32 | – | – | 4% | COc1cc(OC)c(NC(=O)NCc2[nH]nc(-c3ccc(F)cc3)c2-c2ccncc2)cc1Cl [Example B-0187] | 14% | –
33 | – | – | 42% | CCOC(=O)C(CC(C)C)NC(=O)NCc1[nH]nc(-c2ccc(F)cc2)c1-c1ccncc1 (stereo not shown) [Example B-0189] | 9% | –
34 | – | – | 59% | COc1ccc(NC(=O)NCc2[nH]nc(-c3ccc(F)cc3)c2-c2ccncc2)cc1 [Example B-0190] | 31% | –
35 | 40% | – | – | COc1cc(NC(=O)NCc2[nH]nc(-c3ccc(F)cc3)c2-c2ccncc2)cc(OC)c1OC [Example B-0191] | 29% | –
36 | – | 1.03 µM | – | O=C(NCc1[nH]nc(-c2ccc(F)cc2)c1-c1ccncc1)[C@@H]1CCCN1C(=O)OCC1c2ccccc2-c2ccccc21 [Example B-0195] | 55% | –
37 | – | 2.24 µM | – | O=C(NCc1[nH]nc(-c2ccc(F)cc2)c1-c1ccncc1)[C@H]1CCCN1 [Example B-0196] | – | IC50 (TNF-α): > 1 µM
38 | – | 2 µM | – | O=C(NCc1[nH]nc(-c2ccc(F)cc2)c1-c1ccncc1)[C@H]1CCCN1C(=O)OCC1c2ccccc2-c2ccccc21 [Example B-0197] | 14% | –
39 | – | 1.2 µM | – | O=C(NCc1[nH]nc(-c2ccc(F)cc2)c1-c1ccncc1)c1ccccn1 [Example B-0198] | 2% | –
40 | – | 1.34 µM | – | O=C(NCc1[nH]nc(-c2ccc(F)cc2)c1-c1ccncc1)c1ccncc1 [Example B-0199] | 3% | –
41 | – | 1.31 µM | – | O=C(NCc1[nH]nc(-c2ccc(F)cc2)c1-c1ccncc1)c1cccnc1 [Example B-0200] | 16% | –
42 | – | 0.55 µM | – | CC(Oc1ccccc1)C(=O)NCc1[nH]nc(-c2ccc(F)cc2)c1-c1ccncc1 (stereo not shown) [Example B-0202] | – | IC50 (TNF-α): 2.26 µM
43 | – | 0.16 µM | – | CCCOC(=O)NCc1[nH]nc(-c2ccc(F)cc2)c1-c1ccncc1 [Example B-0203] | 65% | –
44 | – | 0.21 µM | – | CCOC(=O)NCc1[nH]nc(-c2ccc(F)cc2)c1-c1ccncc1 [Example B-0204] | 48% | –
45 | – | 0.096 µM | – | CC(C)OC(=O)NCc1[nH]nc(-c2ccc(F)cc2)c1-c1ccncc1 [Example B-0205] | 54% | –
46 | – | 5.76 µM | – | O=C(NCc1[nH]nc(-c2ccc(F)cc2)c1-c1ccncc1)c1cnc2ccccc2n1 [Example B-0206] | 14% | –
47 | – | 0.12 µM | – | COC(=O)NCc1[nH]nc(-c2ccc(F)cc2)c1-c1ccncc1 [Example B-0207] | 52% | –
48 | – | 0.29 µM | – | O=C(NCc1[nH]nc(-c2ccc(F)cc2)c1-c1ccncc1)c1ccco1 [Example B-0209] | 8% | –
49 | – | 0.057 µM | – | O=C(NCc1[nH]nc(-c2ccc(F)cc2)c1-c1ccncc1)C(F)(F)F [Example B-0210] | 67% | –
50 | – | 0.25 µM | – | CNC(=O)NCc1[nH]nc(-c2ccc(F)cc2)c1-c1ccncc1 [Example B-0211] | 30% | –
51 | – | 0.12 µM | – | CCNC(=O)NCc1[nH]nc(-c2ccc(F)cc2)c1-c1ccncc1 [Example B-0212] | 28% | –
52 | – | 0.31 µM | – | CCCNC(=O)NCc1[nH]nc(-c2ccc(F)cc2)c1-c1ccncc1 [Example B-0213] | 39% | –
53 | – | 0.16 µM | – | NC(=O)NCc1[nH]nc(-c2ccc(F)cc2)c1-c1ccncc1 [Example B-0214] | 50% | –
